Article PMC5434891, “Tetramethylpyrazine blocks TFAM degradation and up-regulates mitochondrial DNA copy number by interacting with TFAM” (Bioscience Reports, 2017)

What was measured:
[1] = biological target: T1, Lon (human mitochondrial Lon protease) (Homo sapiens, UniProt P36776); experiment: ADP-Glo ATPase assay with purified Lon; about […] activity left at […]; assay type: biochemical
T1 construct: gene LONP1
T1 sequence (P36776 68-959): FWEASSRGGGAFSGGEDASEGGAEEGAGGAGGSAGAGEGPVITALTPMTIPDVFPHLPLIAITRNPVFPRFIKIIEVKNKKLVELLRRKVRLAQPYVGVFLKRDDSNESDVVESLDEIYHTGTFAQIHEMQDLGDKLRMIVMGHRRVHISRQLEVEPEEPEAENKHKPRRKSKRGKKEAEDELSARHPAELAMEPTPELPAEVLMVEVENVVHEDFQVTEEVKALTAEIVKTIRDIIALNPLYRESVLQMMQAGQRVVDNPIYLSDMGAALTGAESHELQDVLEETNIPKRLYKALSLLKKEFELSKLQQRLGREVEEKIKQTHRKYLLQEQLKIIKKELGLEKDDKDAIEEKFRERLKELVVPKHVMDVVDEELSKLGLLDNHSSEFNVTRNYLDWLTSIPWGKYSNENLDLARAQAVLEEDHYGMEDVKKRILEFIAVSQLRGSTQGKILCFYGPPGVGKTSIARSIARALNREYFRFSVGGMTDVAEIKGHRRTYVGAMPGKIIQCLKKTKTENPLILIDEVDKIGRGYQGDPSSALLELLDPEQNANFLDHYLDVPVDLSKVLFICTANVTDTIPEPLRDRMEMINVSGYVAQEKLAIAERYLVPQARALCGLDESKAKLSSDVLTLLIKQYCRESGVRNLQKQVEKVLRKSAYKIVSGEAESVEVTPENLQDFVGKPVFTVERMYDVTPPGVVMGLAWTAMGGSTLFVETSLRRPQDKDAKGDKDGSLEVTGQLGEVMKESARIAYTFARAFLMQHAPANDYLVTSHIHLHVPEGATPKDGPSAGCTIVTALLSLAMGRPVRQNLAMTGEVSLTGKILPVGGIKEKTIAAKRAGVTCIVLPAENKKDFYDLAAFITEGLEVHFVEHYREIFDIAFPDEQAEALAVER

[2] = biological target: T2, TFAM (mitochondrial transcription factor A) (Homo sapiens, UniProt Q00059); experiment: streptavidin-sepharose pull-down from cell extracts, immunoblot ([…]); assay type: cell-based
T2 construct: endogenous TFAM in HeLa ρ+ and HCT116 cell extracts
T2 sequence (Q00059 43-246): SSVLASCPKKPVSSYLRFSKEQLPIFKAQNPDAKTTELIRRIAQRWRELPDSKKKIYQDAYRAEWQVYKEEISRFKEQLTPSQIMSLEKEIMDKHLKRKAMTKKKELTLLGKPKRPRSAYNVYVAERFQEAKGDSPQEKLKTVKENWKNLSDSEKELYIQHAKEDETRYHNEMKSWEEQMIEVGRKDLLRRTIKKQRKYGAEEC

[3] = biological target: T3, TFAM (mitochondrial transcription factor A) (Homo sapiens, UniProt Q00059); experiment: protection of purified TFAM from degradation by purified Lon (Western blot); binding itself shown only with the biotinylated conjugate; assay type: biochemical
T3 sequence (Q00059 43-246): T2 sequence (Q00059 43-246)
T3 sequence (P36776 68-959 partner): T1 sequence (P36776 68-959)

Question: CC1(C)CC[C@]2(C(=O)O)CC[C@]3(C)[C@H](C(=O)C=C4[C@@]5(C)C=C(C#N)C(=O)C(C)(C)[C@@H]5CC[C@]43C)[C@@H]2C1 [CDDO, 2-cyano-3,12-dioxooleana-1,9(11)-dien-28-oic acid] was tested. Which “ADP-Glo ATPase assay with purified Lon; about 10% activity left at 200 μM” value [1] did it give?
Answer: CDDO inhibited the ATPase activity of Lon in a dose-dependent manner

Question: Which “streptavidin-sepharose pull-down from cell extracts, immunoblot (10 μM)” value [2] does the source give for Cc1nc(C)c(COC(=O)CCCC[C@@H]2SC[C@@H]3NC(=O)N[C@@H]32)nc1C [biotinylated TMP] here?
Answer: TFAM was specifically pulled down only in complexes containing biotinylated-TMP and SA-sepharose

Question: How did the “protection of purified TFAM from degradation by purified Lon (Western blot); bin” value [3] turn out when Cc1nc(C)c(C)nc1C [TMP, 2,3,5,6-tetramethylpyrazine] was run?
Answer: ~ 20 mM
